In US7008950B1, “Benzofurans as suppressors of neurodegeneration” (Takeda Chemical Industries, Ltd., priority 1997, dated 2006):

What follows are molecules tested on human neuroblastoma SK—N—SH cells (assay: Cell protective activity against β-amyloid 25-35-induced neurotoxicity (Alamar Blue cell viability)). Details: test compound 1 μM with β-amyloid 25-35 10 μM; rhIFN-γ-pretreated SK—N—SH cells; viability by Alamar Blue after 3 days; [(A−B)/(C−B)]×100.
Type: cell-based
From the text: Evaluation of cell protective activity against β-amyloid neurotoxicity in human neuroblastoma SK—N—SH cells.
• Human neuroblastoma SK—N—SH cells: obtained from American Type Tissue Culture Collection (ATCC). DMEM/F-12 medium: obtained from Nikken Biological Medicine Laboratory Co. • Ca^++ and Mg^++ free phosphate-buffered saline (PBS(−)): obtained Nikken Biological Medicine Laboratory Co. • N2 supplement™, and EDTA solution: obtained from Gibco BRL Co. • Fetal calf serum, and mixture of penicillin (5000 U/mL) and streptomycin (5 mg/mL): obtained from Bio Whittaker Co. • Recombinant human interferon gamma (rhIFN-γ): obtained from Wako Pure Chemical Co. • Alamar Blue™ reagent: obtained from AccuMed International, Inc. • Culture flasks: manufactured by Falcon Co. Collagen-coated, 96-well multi-plate: manufactured by Iwaki Glass Co. • β-amyloid 25-35: obtained from Bachem AG. • Other reagents: commercially-available special-grade chemicals. b) Test Method (1) Cultivation of SK—N—SH cells
SK—N—SH cells were sub-cultured in DMEM/F12 medium containing 5% FCS, 0.5% N2 supplement™, 1% of mixture of penicillin (5000 U/mL) and streptomycin (5 mg/mL), under 10 t CO2 and 90% air, using CO2 incubator. At sub-confluent condition, cells were harvested from culture flask with PBS(−) containing 2.5 mM EDTA, and plated at a density of 1.0×10^4 cells/100 μl of culture medium/well in collagen-coated 96-well multi-plate. The next day, 80 μl of culture medium was substituted with DMEM/F12 medium (containing neither FCS nor N2 supplement) containing 1.25 ng/mL of rhIFN-γ, and after 24 hr cultivation cells were used for cell toxicity assay mentioned below.
(2) Measurement of cell protective activity of test compounds against β-amyloid 25-35-induced neurotoxicity
After pretreatment of SK—N—SH cells with rhIFN-γ in collagen-coated 96 well multi-plate, cell toxicity assay was started by addition of β-amyloid 25-35 and test compound. Briefly, 80 μl of culture medium was removed, and 40 μl of β-amyloid 25-35 and 40 μl of test compound were added to cultures at the same time. The final concentrations of β-amyloid 25-35 and test compounds were 10 μM and 1 μM, respectively.
The test compound was dissolved at 10 mM in dimethylsulfoxide (DMSO) and diluted in DMEM/F12 medium. β-amyloid 25-35 was dissolved at 5 mM in sterile pure water, and stored at −80° C. Immediately before use, the stock solution β-amyloid 25-35 was diluted in DMEM/F12 medium and sonicated.
(3) Evaluation of cell protective activity of test compound
Cell viability was assessed by the reduction of Alamar Blue™ reagents, 3 days after starting of the cell toxicity assay. Briefly, 20 μl of culture medium was substituted with 20 μl of Alamar Blue™ reagents and incubated 4 hours. Absorbances were determined at wavelengths of 570 nm and 600 nm using a plate reader (MTP-32 Micro-plate Reader, manufactured by Corona Co.). Amount of reduced Alamar Blue reagents was determined by subtracting absorbance600 from absorbance570. The cell protective activity of the test compound was estimated according to the following equation: • Cell protective activity of compound [(A−B)/(C−B)]×100 (%) 20 where; • A: cell viability of the group treated with both the test compound and β-amyloid • B: cell viability of the group treated with β-amyloid only • C: cell viability of the control group Results
Cell viability of the group treated with both the test compound and β-amyloid was compared with that 30 group treated with β-amyloid only using Dunnett's test.
Cell viability of each group was determined using at least 4 culture well.

Row | Compound | Cell Protecting Activity (%)
1 | Cc1c(C)c2c(c(C)c1OCc1ccccc1)C(c1ccc(C(C)C)cc1)C(C)(C)O2 (stereo not shown) [Example 1, 5-Benzyloxy-3-(4-isopropylphenyl)-2,2,4,6,7-pentamethyl-2,3-dihydrobenzofuran] | 30.7%
2 | Cc1c(C)c2c(c(C)c1OCc1ccccc1)C(c1ccc(N(C)C)cc1)C(C)(C)O2 (stereo not shown) [Example 2, 5-Benzyloxy-3-[4-(dimethylamino)phenyl]-2,2,4,6,7-pentamethyl-2,3-dihydrobenzofuran] | 27.9%
3 | Cc1c(C)c2c(c(C)c1OCc1ccccc1)CC(C)(CN1CCN(c3ccccc3)CC1)O2 (stereo not shown) [Example 3, 5-Benzyloxy-2,4,6,7-tetramethyl-2-(4-phenyl-1-piperazinyl)methyl-2,3-dihydrobenzofuran] | 39.4%
4 | COc1ccc(COc2c(C)c(C)c3c(c2C)C(c2ccc(N4CCOCC4)cc2)C(C)(C)O3)cc1 (stereo not shown) [Example 7, 5-(4-Methoxybenzyloxy)-3-[4-(4-morpholinyl)phenyl]-2,2,4,6,7-pentamethyl-2,3-dihydrobenzofuran] | 27.3%
5 | Cc1c(C)c2c(c(C)c1OCC=Cc1ccccc1)C(c1ccc(C(C)C)cc1)C(C)(C)O2 (stereo not shown) [Example 12, 3-(4-Isopropylphenyl)-2,2,4,6,7-pentamethyl-5-(3-phenyl-2-propen-1-yloxy)-2,3-dihydrobenzofuran] | 44.8%
6 | Cc1c(C)c2c(c(C)c1OCCC(c1ccccc1)c1ccccc1)C(c1ccc(C(C)C)cc1)C(C)(C)O2 (stereo not shown) [Example 14, 5-(3,3-Diphenylpropyloxy)-3-(4-isopropylphenyl)-2,2,4,6,7-pentamethyl-2,3-dihydrobenzofuran] | 44.2%
7 | Cc1c(C)c2c(c(C)c1OCCc1ccccc1)C(c1ccc(C(C)C)cc1)C(C)(C)O2 (stereo not shown) [Example 25, 3-(4-Isopropylphenyl)-2,2,4,6,7-pentamethyl-5-(2-phenylethyl)oxy-2,3-dihydrobenzofuran] | 47.0%
